Structures can show the parent of a compound that is named as a salt.

Assay [1] is described as follows: Example 14: blue light sensitivity and fog after post-exposure bath, emulsion T-1. The note with it: bathed after exposure.
Procedure: Samples of the coating were exposed to a xenon flash of 10^-3 sec duration filtered through a 2.0 neutral density filter, Kodak Wratten filters 35 and 38A, and a step wedge ranging in density from 0 to 3 density units in 0.15 density steps. These conditions allowed only blue light to expose the coatings. After exposure, one sample of the coating was subjected to each of the following treatments:
B. Post-exposure bath for 15 min in a solution of 5.4×10^-4 M NaBr and 3.0'10^-6 M S-3 at pH=6.0. (Bath 1)
Post-exposure bath for 15 min in a solution of 5.4×10^-4 M NaBr and 1.5×10^-5 M S-3 at pH=6.0. (Bath 2)
The coatings subjected to the post-exposure baths were then rinsed to remove excess solution and all coatings were developed together for 6 min in Kodak Rapid X-ray Developer (KRX). Relative sensitivity to blue light, Sblue, was evaluated at a density of 0.15 units above fog.
Assay [2] can be described thus: Example 2: photographic speed and fog, 365 nm exposure, acids vs corresponding esters, emulsion T-1. The settings on record: for Fog / S365: undyed; for S365: control=100. More on the design: Fog: unit not given here. The procedure:
This chemically sensitized emulsion was then used to prepare the experimental coating variations indicated in Table I. All of the experimental coating variations in Table I contained the hydroxybenzene 2,4-disulfocatechol (HB3) at a concentration of 13 mmole/mole Ag, added to the melt before the addition of any further addenda. The fragmentable electron donor compounds as indicated in Table I were added from an aqueous potassium bromide solution, or from a methanol solution, before additional water, gelatin, and surfactant were added to the emulsion melts.
(§1) For photographic evaluation, each of the coating strips was exposed for 0.1 sec to a 365 nm emission line of a Hg lamp filtered through a Kodak Wratten filter number 18A and a step wedge ranging in density from 0 to 4 density units in 0.2 density steps. The exposed film strips were developed for 6 min in Kodak Rapid X-ray Developer (KRX). S365, relative sensitivity at 365 nm, was evaluated at a density of 0.2 units above fog.
The coatings described in Table II all contain the hydroxybenzene, 2,4-disulfocatechol (HB3) at a concentration of 13 mmole/mole Ag, added to the melt before any further addenda.

Assay [3] is described as follows: Example 13: photographic speed and fog, 365 nm exposure, cubic emulsion C-3. The note with it: for Fog / S365: 0.02 x10^-3 mol/mol Ag. The procedure: as §1
A chloride containing cubic emulsion with uniform halide distribution was precipitated using deionized gelatin. Emulsion C-3 was an AgClI emulsion with a 1.5% I content and a cubic edge length of 0.36 μm. The emulsion was chemically sensitized by adding 15 mg of Au2 S/mole Ag using a gelatin dispersion. The chemical sensitizer was added to the emulsion at 40° C., the temperature was then raised to 60° C. and the emulsion held for 20 min before cooling back to 40° C. These experimental coating variations contained the hydroxybenzene, 2,4-disulfocatechcol (HB3) at a concentration of 13 mmole/mole Ag, added to the melt before the addition of any further compounds. Some of the variations were then dyed with the sensitizing dye D-I, added from methanol solution. The fragmentable electron donor compound S-9 was then added to the emulsion melts at 40° C. and coatings were prepared and tested as described in Example 1 except that the additional gelatin used to prepare the coatings described in Table XIII was deionized gelatin.

Assay [4] is described as follows: Example 8: spectral sensitivity, cubic emulsion C-2. The settings on record: dye II 0.40 x10^-3, dyed control=100. The procedure:
Additional testing was carried out to determine the response of the coatings described in Table III to a spectral exposure. Each of the coating strips was exposed for 0.1 sec on a wedge spectrographic instrument that covers the wavelength range from 400 to 750 nm. The instrument contains a tungsten light source and a step tablet ranging in density from 0 to 3 density units in 0.3 density steps. After developing exposed strips for 6 min in Kodak Rapid X-ray Developer (KRX), speed was read at 10 nm wavelength intervals at a density of 0.3 above fog. Correction for the instrument's variation in spectral irradiance with wavelength was done with a computer and a plot of log sensitivity vs. wavelength was generated. For this exposure, for each dye used, the relative sensitivity was set equal to 100 for the control coating with no fragmentable two-electron donor compound added.
Two cubic emulsions with uniform halide composition were precipitated using deionized gelatin. Emulsion C-1 was a AgErI emulsion with a 3% I content and a cubic edge length of 0.47 μm and emulsion C-2 was an AgBr emulsion with a cubic edge length of 0.52 μm. The emulsions were sulfur sensitized by adding 1,3-dicarboxymethyl-1,3-dimethyl-2-thiourea at 40° C.; the temperature was then raised to 60° C. at a rate of 5° C./3 min and the emulsions held for 20 min before cooling to 40° C. The amounts of the sulfur sensitizing compound used were 1.0×10^-5 mole/mole Ag for emulsion C-1, and 6.0×10^-6mole/mole Ag for emulsion C-2. These experimental coating variations contained the hydroxybenzene, 2,4-disulfocatechcol (HB3) at a concentration of 13 mmole/mole Ag, added to the melt before the addition of any further compounds. Some of the variations were then dyed with the sensitizing dye D-II, added from methanol solution. The fragmentable electron donor compounds were then added to the emulsion melts at 40° C. and coatings were prepared and tested as described in Example 1 except that the additional gelatin used to prepare the coatings described in Table VIII was deionized gelatin. Also, the dyed coatings were tested for their response to a spectral exposure as described in Example 3.

The nature of assay [5]: Example 6: photographic speed and fog, 365 nm exposure, emulsion T-2. The settings on record: for effect on dye desensitization: red dyed emulsion (D-II), 365 nm. The procedure: as §1
An AgBrI tabular silver halide emulsion (Emulsion T-2) was prepared containing 4.05% total I distributed such that the central portion of the emulsion grains contained 1.5% I and the perimeter area contained substantially higher I, as described by Chang et. al., U.S. Pat. No. 5,314,793. […] This emulsion was precipitated using deionized gelatin. The emulsion was sulfur sensitized by adding 8.5×10^-6 mole 1,3-dicarboxymethyl-1,3-dimethyl-2-thiourea /mole Ag at 40° C.; the temperature was then raised to 60° C. at a rate of 5° C./3 min and the emulsions held for 20 min before cooling to 40° C. The chemically sensitized emulsion was then used to prepare coatings containing the fragmentable two-electron donor compounds. All of the experimental coating variations in Table III contained the hydroxybenzene 2,4-disulfocatechol (HB3) at a concentration of 13 mmole/ mole Ag, added to the melt before the addition of any further addenda. Where present, the blue sensitizing dye D-I or the red sensitizing dye D-II were added from methanol solution to the emulsion at 40° C. after the chemical sensitization and disulfocatechol addition. The fragmentable two-electron donor compounds were added to the emulsion at 40° C. and the coatings were prepared and tested as described in Example 1, except that the additional gelatin used to prepare the coatings described in Table III was deionized gelatin.
The chemically sensitized AgErI tabular emulsion T-2 as described in Example 3 was used to prepare the experimental coating variations listed in Table VI, comparing fragmentable electron donating compounds PMT-1 and PMT-2 that contain a phenylmercaptotetrazole as the silver halide adsorbing group. For some of the experimental variations listed in Table VI the red sensitizing dye D-II was added from methanol solution to the emulsion at 40° C. after the chemical sensitization. The fragmentable electron donating compounds were then added to the emulsion and coatings prepared and tested for sensitivity at 365 nm and for spectral sensitivity as described in Example 3.

In the case of `CCSCCN(c1ccc(C)cc1)[C@@H](C)C(=O)[O-].[Na+]` [Compound S-3, N-(4-Methylphenyl)-N-(2-ethylthio-ethyl)alanine sodium salt], the “sensitivity gain relative to unbathed coating” value in assay [1] is ~2 X. Also, the Fog in assay [2] (0.00220 x10^-3 mole/mole Ag) came out at 0.07; in assay [2] (0.00700 x10^-3 mole/mole Ag) it was 0.06; in assay [2] (0.02200 x10^-3 mole/mole Ag), 0.11; in assay [2] (0.07000 x10^-3 mole/mole Ag) it was 0.57; in assay [2] (0.22000 x10^-3 mole/mole Ag) it was 1.24. The figures for the S365 in assay [2] (0.00220 x10^-3 mole/mole Ag), in assay [2] (0.00700 x10^-3 mole/mole Ag) and in assay [2] (0.02200 x10^-3 mole/mole Ag) were 110, 120 and 141, respectively. In assay [2] (undyed T-1 emulsion), the “speed and fog change” value was “both speed and fog increases”.
Consider `CCSCCN(c1ccccc1)C(C)C(=O)O` (centres unmarked) [Compound S-9, N-(Phenyl)-N-(2-thioethyl-ethyl)alanine sodium salt], for which the Fog was found to be 0.14 in assay [3] (dye I 0.61 x10^-3) and 0.15 in assay [3] (no dye). Moreover, the S365 in assay [3] (dye I 0.61 x10^-3, dyed control 74) was 129; in assay [3] (no dye, control=100), 118. Moreover, the speed increase in assay [3] (undyed AgClI cubic emulsion) came out at 1.2 X. For the same compound, the results for the Sλ in assay [4] (0.005 x10^-3 mol/mol Ag) and in assay [4] (0.016 x10^-3 mol/mol Ag) were 159 and 195, respectively.
Turning to `CCSCCN(c1ccc(C(=O)O)cc1)C(C)C(=O)O` (centres unmarked) [Compound S-11], the Sλ in assay [4] (0.05 x10^-3 mol/mol Ag) stood at 159; in assay [4] (0.16 x10^-3 mol/mol Ag), 186.
Take `Cc1ccc(N(CCC(=O)Nc2cccc(-n3nnnc3S)c2)C(C)C(=O)O)cc1` (centres unmarked) [PMT-1]: the Fog came to 0.14 in assay [5] (0.0006 x10^-3 mole/mole Ag, dye II 0.86 x10^-3); 0.27 in assay [5] (0.0017 x10^-3 mole/mole Ag, dye II 0.86 x10^-3); 0.53 in assay [5] (0.0055 x10^-3 mole/mole Ag, dye II 0.86 x10^-3); 0.08 in assay [5] (0.006 x10^-3 mole/mole Ag, no dye); 0.13 in assay [5] (0.017 x10^-3 mole/mole Ag, no dye). In addition, the S365 amounted to 97 in assay [5] (0.0006 x10^-3 mole/mole Ag, dye II 0.86 x10^-3, dyed control 73); 115 in assay [5] (0.0017 x10^-3 mole/mole Ag, dye II 0.86 x10^-3, dyed control 73); 102 in assay [5] (0.0055 x10^-3 mole/mole Ag, dye II 0.86 x10^-3, dyed control 73); 195 in assay [5] (0.006 x10^-3 mole/mole Ag, no dye, control=100); 191 in assay [5] (0.017 x10^-3 mole/mole Ag, no dye, control=100). Moreover, the “effect on dye desensitization” value in assay [5] was “effective in ameliorating dye desensitization”.
For the compound `CC(C(=O)O)N(CCC(=O)Nc1cccc(-n2nnnc2S)c1)c1ccccc1` (centres unmarked) [PMT-2], the Fog is on record as 0.13 in assay [5] (0.0005 x10^-3 mole/mole Ag, dye II 0.86 x10^-3); 0.23 in assay [5] (0.0016 x10^-3 mole/mole Ag, dye II 0.86 x10^-3); 0.40 in assay [5] (0.005 x10^-3 mole/mole Ag, dye II 0.86 x10^-3); 0.06 in assay [5] (0.005 x10^-3 mole/mole Ag, no dye); 0.08 in assay [5] (0.016 x10^-3 mole/mole Ag, no dye). Besides, the S365 in assay [5] (0.0005 x10^-3 mole/mole Ag, dye II 0.86 x10^-3, dyed control 73) came to 102; in assay [5] (0.0016 x10^-3 mole/mole Ag, dye II 0.86 x10^-3, dyed control 73), 118; in assay [5] (0.005 x10^-3 mole/mole Ag, dye II 0.86 x10^-3, dyed control 73), 118; in assay [5] (0.005 x10^-3 mole/mole Ag, no dye, control=100), 191; in assay [5] (0.016 x10^-3 mole/mole Ag, no dye, control=100), 186. Moreover, the “effect on dye desensitization” value in assay [5] is recorded as “effective in ameliorating dye desensitization”.

Source of the values: US5747235A, “Silver halide light sensitive emulsion layer having enhanced photographic sensitivity” (Eastman Kodak Company, priority 1996, dated 1998).
